Results published in US9346782B2, “Alkyl linked quinolinyl modulators of RORγt” (Janssen Pharmaceutica NV, priority 2013, dated 2016).

Key:
human RORγt LBD = human RORγt LBD (Homo sapiens (Human), UniProt P51449); experiment: RORγt Reporter Assay; type: cell-based; details: for IC50 / RORγt reporter Assay, % inhibition @ 6 μM: HEK293T cells; for inhibition at 6 µM: HEK-293T, read-out: RORγt reporter Assay, % inhibition @ 6 μM, HEK293T cells, 6 μM
Description: A reporter assay was used to test functional activity of RORγt modulatory compounds on transcriptional activation driven by the RORγt LBD. Cells used in the assay were co-transfected with two constructs. The first construct, pBIND-RORγt LBD, contained the wild type human RORγt LBD fused to the DNA binding domain of the GAL4 protein. The second construct, pGL4.31 (Promega Cat no. C935A), contained multiple GAL4 responsive DNA elements upstream of firefly luciferase. […] The mutant construct was called pBIND-RORγt-AF2.
The pBIND vector contains the GAL4 DNA Binding Domain (GAL4 DBD) and the renilla luciferase gene under control of the SV40 promoter. Renilla luciferase expression serves as a control for transfection efficiency and cell viability.
The reporter assay was performed by transiently transfecting HEK293T cells with 5 μg of pBIND-RORγt LBD or pBIND-RORγt LBD-AF2 and 5 μg pGL4.31 (Promega Cat no. C935A) using Fugene 6 (Invitrogen Cat no. E2691) at a 1:6 ratio of DNA:Fugene 6 in a T-75 flask in which cells were at least 80% confluent. Twenty four hours after bulk transfection, cells were plated into 96-well plates at 50,000 cells/well in phenol-red free DMEM containing 5% Lipid Reduced FCS and Pen/Strep. Six hours after plating, cells were treated with compounds for 24 hours. Media was removed and cells were lysed with 50 μL 1× Glo Lysis Buffer (Promega). Dual Glo Luciferase Reagent (50 μL/well) was then added and firefly luciferase luminescence was read on an Envision after a ten minute incubation. Finally, Stop and Glo reagent (50 μL/well) was added and renilla luciferase luminescence was read on an Envision after a ten minute incubation. To calculate the effect of compounds on RORγt activity, the ratio of firefly to renilla luciferase was determined and plotted against compound concentration. Agonist compounds increase RORγt-driven luciferase expression, and antagonist or inverse agonist compounds decrease luciferase expression.

[1] = system: IL-17 production by CD4 T cells; experiment: Human Th17 Assay; type: cell-based; details: 3 days
Description: The human Th17 assay tests the effect of RORγt modulatory compounds on IL-17 production by CD4 T cells under conditions which favor Th17 differentiation. Total CD4^+ T cells were isolated from the peripheral blood mononuclear cells (PBMC) of healthy donors using a CD4^+ T cell isolation kit II, following the manufacturer's instructions (Miltenyi Biotec). Cells were resuspended in a medium of RPMI-1640 supplemented with 10% fetal bovine serum, penicillin, streptomycin, glutamate, and β-mercaptoethanol and were added to 96-well plates at 1.5×10^5 per 100 μL per well. 50 μL of compound at titrated concentrations in DMSO were added into each well at final DMSO concentration at 0.2%. Cells were incubated for 1 hour, then 50 μL of Th17 cell differentiation medium was added to each well. The final concentrations of antibodies and cytokines (R&D Systems) in differentiation medium were: 3×10^6/mL anti-CD3/CD28 beads (prepared using human T cell activation/expansion kit, Miltenyi Biotec), 10 μg/mL anti-IL4, 10 μg/mL anti-IFNγ, 10 ng/mL IL1β, 10 ng/mL IL23, 50 ng/mL IL6, 3 ng/mL TGFβ and 20 U/mL IL2. Cells were cultured at 37° C. and 5% CO2 for 3 days. Supernatants were collected and the accumulated IL-17 in culture was measured by using MULTI-SPOT® Cytokine Plate following manufacture's instruction (Meso Scale Discovery). The plate was read using Sector Imager 6000, and IL-17 concentration was extrapolated from the standard curve. The IC50s were determined by GraphPad.

human RORγt LBD, sequence (P51449 258-518): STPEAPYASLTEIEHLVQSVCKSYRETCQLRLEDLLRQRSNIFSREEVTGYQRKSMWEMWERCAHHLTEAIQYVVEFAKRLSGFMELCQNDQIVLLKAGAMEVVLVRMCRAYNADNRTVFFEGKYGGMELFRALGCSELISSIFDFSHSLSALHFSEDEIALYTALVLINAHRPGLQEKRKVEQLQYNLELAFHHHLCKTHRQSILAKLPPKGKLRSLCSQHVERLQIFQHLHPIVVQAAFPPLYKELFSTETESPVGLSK

IC50 (human RORγt LBD) [nM] | inhibition at 6 µM (human RORγt LBD) [%] | IC50 [1] [nM] | RORγt reporter Assay, % inhibition @ 6 μM (human RORγt LBD) [%] | IC50 ([1]; Homo sapiens, CD4+ T, 72 h) [nM] | SMILES
200 | 101 | 170 |  |  | COc1nc2ccc(C(C)(O)c3ccc(C)nc3C)cc2c(Cl)c1Cc1ccc(C(F)(F)F)cc1 (single isomer, unassigned) [Example 13b, 1-(4-Chloro-2-methoxy-3-(4-(trifluoromethyl)benzyl)quinolin-6-yl)-1-(2,6-dimethylpyridin-3-yl)ethanol]
46 |  | 60 | 100 |  | COc1nc2ccc(C(C)(O)c3ccc(C)nc3C)cc2c(Cl)c1Cc1ccc(C(F)(F)F)cc1 (single isomer, unassigned) [Example 13c, 1-(4-Chloro-2-methoxy-3-(4-(trifluoromethyl)benzyl)quinolin-6-yl)-1-(2,6-dimethylpyridin-3-yl)ethanol]
66 | 84 |  |  | 190 | C#CC(O)(c1ccc2nc(OC)c(Cc3ccc(C(F)(F)F)cc3)c(Cl)c2c1)c1cnc(C)n1C (single isomer, unassigned) [Example 14b, 1-(4-Chloro-2-methoxy-3-(4-(trifluoromethyl)benzyl)quinolin-6-yl)-1-(1,2-dimethyl-1H-imidazol-5-yl)prop-2-yn-1-ol]
310 |  | 290 | 94 |  | C#CC(O)(c1ccc2nc(OC)c(Cc3ccc(C(F)(F)F)cc3)c(Cl)c2c1)c1cnc(C)n1C (single isomer, unassigned) [Example 14c, 1-(4-Chloro-2-methoxy-3-(4-(trifluoromethyl)benzyl)quinolin-6-yl)-1-(1,2-dimethyl-1H-imidazol-5-yl)prop-2-yn-1-ol]

Second part, the compound before the results:

SMILES | IC50 (human RORγt LBD) [nM] | inhibition at 6 µM (human RORγt LBD) [%] | IC50 [1] [nM] | RORγt reporter Assay, % inhibition @ 6 μM (human RORγt LBD) [%] | IC50 ([1]; Homo sapiens, CD4+ T, 72 h) [nM]
COc1nc2ccc(C(C)(O)c3cnnn3C)cc2c(Cl)c1Cc1ccc(C(F)(F)F)cc1 (single isomer, unassigned) [Example 11b, 1-(4-Chloro-2-methoxy-3-(4-(trifluoromethyl)benzyl)quinolin-6-yl)-1-(1-methyl-1H-1,2,3-triazol-5-yl)ethanol] | 210 | 98 | 870 |  | 
COc1nc2ccc(C(C)(O)c3cnnn3C)cc2c(Cl)c1Cc1ccc(C(F)(F)F)cc1 (single isomer, unassigned) [Example 11c, 1-(4-Chloro-2-methoxy-3-(4-(trifluoromethyl)benzyl)quinolin-6-yl)-1-(1-methyl-1H-1,2,3-triazol-5-yl)ethanol] | 15 |  | 57 | 99 | 
COc1nc2ccc(C(C)(O)c3cnc(C)n3C)cc2c(Cl)c1Cc1ccc(C(F)(F)F)cc1 (single isomer, unassigned) [Example 12b, 1-(4-Chloro-2-methoxy-3-(4-(trifluoromethyl)benzyl)quinolin-6-yl)-1-(1,2-dimethyl-1H-imidazol-5-yl)ethanol] | 500 | 102 | 2100 |  | 
COc1nc2ccc(C(C)(O)c3cnc(C)n3C)cc2c(Cl)c1Cc1ccc(C(F)(F)F)cc1 (single isomer, unassigned) [Example 12c, 1-(4-Chloro-2-methoxy-3-(4-(trifluoromethyl)benzyl)quinolin-6-yl)-1-(1,2-dimethyl-1H-imidazol-5-yl)ethanol] | 41 |  | 80 | 102 | 
